Source: PubChem BioAssay (NCI)
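In this assay, cells in 96-well plates receive the compound at five concentrations for 48 hours. Endpoints are linearly interpolated between the surrounding concentrations. Here, GI50 denotes the concentration required for 50% inhibition of growth. TGI is the concentration that stops growth completely.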

Legend:
Assay in all cases: NCI tumour cell line growth inhibition, 48 h
HCC-2998 colon = tested on: HCC-2998 colon
HCT-116 colon = tested on: HCT-116 colon
HT29 colon = tested on: HT29 colon
NCI-H522 lung = tested on: NCI-H522 lung
NCI/ADR-RES ovarian = tested on: NCI/ADR-RES ovarian
RPMI-8226 leukemia = tested on: RPMI-8226 leukemia
RXF 393 renal = tested on: RXF 393 renal
SK-MEL-5 melanoma = tested on: SK-MEL-5 melanoma
SR leukemia = tested on: SR leukemia
UACC-257 melanoma = tested on: UACC-257 melanoma

Compound | GI50 (HCC-2998 colon) [µM] | TGI (HCC-2998 colon) [µM] | GI50 (HCT-116 colon) [µM] | TGI (HCT-116 colon) [µM] | GI50 (HT29 colon) [µM] | TGI (HT29 colon) [µM] | GI50 (NCI-H522 lung) [µM] | TGI (NCI-H522 lung) [µM] | GI50 (NCI/ADR-RES ovarian) [µM] | TGI (NCI/ADR-RES ovarian) [µM] | GI50 (RPMI-8226 leukemia) [µM] | TGI (RPMI-8226 leukemia) [µM] | GI50 (RXF 393 renal) [µM] | TGI (RXF 393 renal) [µM] | GI50 (SK-MEL-5 melanoma) [µM] | TGI (SK-MEL-5 melanoma) [µM] | GI50 (SR leukemia) [µM] | TGI (SR leukemia) [µM] | GI50 (UACC-257 melanoma) [µM] | TGI (UACC-257 melanoma) [µM]
CSC(=NC#N)S/C=C/C(=O)c1ccccc1 | 59.4 | > 100 | 17.9 | 34.1 | 37.3 | > 100 | 19.8 | 47.8 | 31.3 | 99.3 | 12.3 | 34.7 | 31.1 | 79 | 45.9 | > 100 | 12.9 | 69.4 | 45.4 | > 100
CN(C)CCCN(CCC1CCCCC1)CCC1CCCCC1 | 0.325 | 0.915 | 1.57 | 3.64 | 0.73 | 6.81 | 3.1 | 8.3 | 0.683 | 7 | 0.424 | 3.86 | 1.47 | 4.24 | 0.545 | 2.14 | 0.731 | 3.25 | 0.77 | 2.82
O=c1oc2ccc(I)cc2c(=O)n1-c1ccc(F)cc1F | 3.23 | 13.9 | 2.14 | 5.2 | 3.4 | 15.4 | 2.65 | 10.2 | 2.64 | 13.4 | 1.49 | 4.83 | 2.44 | 6.09 | 1.53 | 3.03 | 3.02 | > 100 | 2.01 | 6.12
CO[C@H]1C=CO[C@@]2(C)Oc3c(C)c(O)c4c(O)c(c(CN5CCN(C)CC5)c(O)c4c3C2=O)NC(=O)/C(C)=C\C=C[C@H](C)[C@H](O)C(C)[C@@H](O)C(C)[C@H](OC(C)=O)[C@@H]1C (stereo not given in full) |  | > 100 |  | 35.9 |  | > 100 |  | 46.5 |  | > 100 |  | > 87.4 |  | > 100 |  | 56.4 |  | 35.5 |  | > 72.8
Cc1c2ccn(O)cc2c(C)c2c1nc1ccccc12 |  | 98.5 |  | 24.7 |  | > 100 |  | 22.3 |  | > 100 |  | > 100 |  | 22.6 |  | > 100 |  | 15.2 |  | > 100
